27 compounds from paper PMC3723537, “Structural Basis for Native Agonist and Synthetic Inhibitor Recognition by the Pseudomonas aeruginosa Quorum Sensing Regulator PqsR (MvfR)” (PLoS Pathogens, 2013) can be followed below.

The target of assay [1] is T1, PqsR (Pseudomonas aeruginosa, UniProt Q9I4X0).
T1 sequence (Q9I4X0 1-332): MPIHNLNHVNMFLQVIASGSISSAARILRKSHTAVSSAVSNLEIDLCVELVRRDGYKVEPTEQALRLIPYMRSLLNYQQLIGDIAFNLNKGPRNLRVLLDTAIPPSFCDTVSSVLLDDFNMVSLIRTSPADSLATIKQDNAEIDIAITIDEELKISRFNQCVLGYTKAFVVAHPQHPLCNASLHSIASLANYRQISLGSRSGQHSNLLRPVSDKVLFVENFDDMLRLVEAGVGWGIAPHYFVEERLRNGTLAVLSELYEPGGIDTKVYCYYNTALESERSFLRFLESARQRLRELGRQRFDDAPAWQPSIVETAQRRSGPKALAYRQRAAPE
Briefly: cell-based. Details: assayed for their agonist and antagonist activities in a whole P. aeruginosa bacterial cell assay; endogenous in cells; host or cells: P. aeruginosa PAO1 wild type, ΔpqsA or ΔpqsAH strains carrying a chromosomal (mini)CTX::pqsA'-lux fusion. Particulars: for Agonist activity on PqsR (in words): pqsA'-lux reporter.

Assay [2] has as its target T1, PqsR. Briefly: cell-based. Details: assayed for their agonist and antagonist activities in a whole P. aeruginosa bacterial cell assay; endogenous in cells; host or cells: P. aeruginosa PAO1 wild type, ΔpqsA or ΔpqsAH strains carrying a chromosomal (mini)CTX::pqsA'-lux fusion. As to conditions: for Antagonist activity on PqsR (in words): pqsA'-lux reporter; for IC50: Figure 6 (QZNs), P. aeruginosa wild type strain with miniCTX::pqsA'-lux fusion, read-out: Antagonist IC50±SD.

Setting [3] is: Figure 2 (AQs), P. aeruginosa ΔpqsA CTX::pqsA'-lux strain, read-out: Agonist EC50 ±SD.
Setting [4] is: Figure 6 (QZNs), P. aeruginosa ΔpqsA miniCTX::pqsA'-lux strain, read-out: Agonist EC50±SD.

Each structure is given as a SMILES string. “Also recorded” adds a separate entry of the source. Where two headings read alike, the source gives them in different places.

Regarding `CCCCCCCc1[nH]c2ccccc2c(=O)c1N` [5a], the EC50 (commonly the midpoint of the concentration-response curve) at PqsR [1] (setting [3]) was 0.4 ± 0.15 µM.

`CCCCCCCCCc1nc2cc(F)ccc2c(=O)[nH]1` [7F-C9-QZN]: the “Antagonist activity on PqsR (in words)” value on PqsR [2] is reported as “devoid of agonist or antagonist activity”. For the same compound, the “Agonist activity on PqsR (in words)” value at PqsR [1] is recorded as “devoid of agonist or antagonist activity”; on PqsR [1] (listed as 8), “partial agonists”.

For `CCCCCCCc1nc2ccccc2c(=O)[nH]1` [C7-QZN], at PqsR [2], the “Antagonist activity on PqsR (in words)” value is listed as “devoid of agonist or antagonist activity”. Also, the “Agonist activity on PqsR (in words)” value at PqsR [1] is “devoid of agonist or antagonist activity”.

For the compound `CCCCCCCCCc1nc2ccccc2c(=O)[nH]1` [C9-QZN], on PqsR [2], the “Antagonist activity on PqsR (in words)” value was “devoid of agonist or antagonist activity”. At PqsR [1], the “Agonist activity on PqsR (in words)” value is “devoid of agonist or antagonist activity”.

For `CCCCCCCc1[nH]c2cc(Cl)ccc2c(=O)c1O` [compound 5], the EC50 at PqsR [1] (setting [3]) amounted to 0.014 ± 0.005 µM. Also, the “Agonist potency relative to PQS” value on PqsR [1] (in P. aeruginosa, from Figure 2 EC50s) is around 135 times.

With `CCCCCCCc1nc2ccccc2c(=O)n1O` [compound 9], the EC50 at PqsR [1] (setting [4]) stood at 54 ± 6.6 µM. Also, at PqsR [1], the “Agonist activity on PqsR (in words)” value is given as “partial agonists”.

For `CCCCCCCCCc1nc2ccccc2c(=O)n1O` [compound 10], the EC50 on PqsR [1] (setting [4]) is 30 ± 3.8 µM.

Turning to `CCCCCCCCCc1nc2cc(Cl)ccc2c(=O)n1O` [compound 11], the EC50 at PqsR [1] (setting [4]) came to 12.7 ± 7.8 µM.

In the case of `CCCCCCCCCc1nc2cc(F)ccc2c(=O)n1O` [compound 12], the EC50 at PqsR [1] (setting [4]) was 21 ± 5.5 µM. The “Agonist activity on PqsR (in words)” value at PqsR [1] was “totally devoid of agonist activity”.

As for `CCCCCCCc1nc2ccccc2c(=O)n1OC` [compound 13], the “Agonist activity on PqsR (in words)” value on PqsR [1] was “inactive; also recorded: totally devoid of agonist activity”.

Regarding `CCCCCCCCCc1nc2ccccc2c(=O)n1OC` [compound 14], at PqsR [1], the “Agonist activity on PqsR (in words)” value was “inactive”.

As for `CCCCCCCCCc1nc2cc(Cl)ccc2c(=O)n1OC` [compound 15], the EC50 on PqsR [1] (setting [4]) stood at 37.3 ± 6.5 µM.

For `CCCCCCCCCc1nc2cc(F)ccc2c(=O)n1OC` [compound 16], on PqsR [1] (setting [4]), the EC50 was 2.2 µM.

Turning to `CCCCCCCCCc1nc2cc(F)c(F)cc2c(=O)n1OC` [compound 17], on PqsR [1] (setting [4]), the EC50 came to 53.6 ± 13.7 µM. Further, the “Reduction of agonist potency relative to 3-OMe-7F-C9-QZN” value on PqsR [1] (second fluorine introduced) is given as around 25 fold.

As to `CCCCCCCc1nc2ccccc2c(=O)n1N` [compound 19], the IC50 – broadly, the concentration at which inhibition is half-maximal – on PqsR [2] came out at 54 ± 15.5 µM. Besides, the “Agonist activity on PqsR (in words)” value at PqsR [1] was “None of these compounds were agonists”.

In the case of `CCCCCCCCCc1nc2ccccc2c(=O)n1N` [compound 20], at PqsR [2], the half-maximal inhibitory concentration (IC50) is 77.2 ± 1 µM. Moreover, the “Agonist activity on PqsR (in words)” value on PqsR [1] was “None of these compounds were agonists”.

Take `CCCCCCCCCc1nc2ccc(Cl)cc2c(=O)n1N` [compound 22]: at PqsR [2], the “Antagonist activity on PqsR (in words)” value was “complete loss of antagonist activity”.

Consider `CCCCCCCCCc1nc2cc(F)ccc2c(=O)n1N` [compound 25], for which the IC50 on PqsR [2] came to 3.9 ± 1.5 µM.

For the compound `CCCCCCCCCc1nc2cc(F)c(F)cc2c(=O)n1N` [compound 26], on PqsR [2], the IC50 worked out at 1.2 ± 0.4 µM.

As for `CCCCCCCCCc1nc2cc(C(F)(F)F)ccc2c(=O)n1N` [compound 27], the “Antagonist activity on PqsR (in words)” value at PqsR [2] is given as “complete loss of activity”.

Consider `CCCCCCCCCc1nc2cc(OC)c(OC)cc2c(=O)n1N` [compound 28], for which the “Antagonist activity on PqsR (in words)” value on PqsR [2] is “inactive”.

For the compound `CCCCCC(C)CCc1nc2ccccc2c(=O)n1N` (stereo not shown) [compound 29], the “Antagonist activity on PqsR (in words)” value on PqsR [2] was “all inactive”.

Regarding `CC(C)CCCCCCc1nc2ccccc2c(=O)n1N` [compound 30], on PqsR [2], the “Antagonist activity on PqsR (in words)” value is “all inactive”.

`CCCCOCCOCc1nc2ccccc2c(=O)n1N` [compound 32]: at PqsR [2], the “Antagonist activity on PqsR (in words)” value was “all inactive”.

On to `CCCCCCCCCc1nc2ccccc2c(=O)n1NC(C)=O` [compound 33], for which, at PqsR [2], the “Antagonist activity on PqsR (in words)” value was “inactive or weak antagonists”.

In the case of `Nn1c(CCCc2ccccc2)nc2cc(Cl)ccc2c1=O` [compound 41], the IC50 on PqsR [2] was 39.6 ± 11 µM.

Consider `CCCCCCCCCc1nc2ncccc2c(=O)n1N` [compound 47], for which, at PqsR [2], the “Antagonist activity on PqsR (in words)” value was “complete loss of activity”.
